Experimental data as given in article PMC6916368, “Cell‐Based Optimization of Covalent Reversible Ketoamide Inhibitors Bridging the Unprimed to the Primed Site of the Proteasome β5 Subunit” (Chemmedchem, 2019).

Assays:
in vitro = assay type: cell-based; settings: human
Experimental: Remarkably, in THP‐1 cells the initial cytotoxicity is increasing for 3 compared to 27 until 14 h treatment (9‐fold) but is approaching to the end of the assay.
Time‐dependent determination of cell viability. For the determination of time‐dependent cytotoxic activity 5.000 cells per well were plated in a white 384 well‐plate in RPMI‐1640 medium supplemented with 0.1 % FBS. Real‐Time Glo MT cell viability assay (Promega) and inhibitor were added to the final concentration and luminescence was determined using a Tecan M1000 microplate reader at the time points indicated (SI chapter 2b, Figure S9–S17, Table S2).

[1] = molecular target: T1, β5c subunit of isolated human 20S proteasome (Homo sapiens, UniProt P28074); assay: Proteasome inhibition assay (20 S Proteasome Assay Kit, Suc‐LLVY‐AMC); assay type: biochemical
T1 construct: purchased Enzo Life Sciences
Outline: (§1)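 Isolated human 20S proteasome (200 ng/well) preincubated 30 min with inhibitor, then 100 μM final Suc-LLVY-AMC (β5c, β5i) or Z-LLE-AMC (β1c) added for 60 min; fluorescence read. Residual activity at 100 nM final (n=3; β5c, β5i) or 1 μM (n=1, incl. β1c). IC50s: technical duplicates, mean of three experiments.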

[2] = molecular target: T2, β5i subunit of isolated human 20S proteasome (Homo sapiens, UniProt P28062); assay: as above; assay type: biochemical
T2 construct: purchased Enzo Life Sciences
Outline: as §1

Danio rerio embryos [3] = assay: Danio rerio escape response (neurotoxicity) assay, dechorionated embryos; assay type: in vivo; settings: for Survived (embryos of 4): dechorionated
Experimental: Danio rerio escape response assay. 24 hours past fertilization embryos were dechorionated and transferred into 96‐well plates containing 198 μL of E3 media at 26 °C. […] Incubation times were 24 h, 48 h and 72 h. Survival of the embryos was determined by visual analysis of heart‐beat. For recording the touch evoked escape response, embryos were transferred to a microscopy slide with cavity that is placed on a SL‐300 LED Soft Light (Dörr, Neu‐Ulm, Germany) under a MotionBlitz EoSens mini1‐1 MC1370 high speed camera (Mikrotron, Unterschleißheim, Germany, Figure S18). An escape response was triggered by a touch stimulus at the trunk of embryos using a small sewing needle, which is slightly blunted. For each embryo, a maximum of 50 stimuli was applied. […] No escape response was determined if only one embryo was alive at 96 hpf. Movement was recorded at 96 hpf at 500 frames per second for 3 seconds using the MotionBlitzDirector 2 software. Determination of the amplitude α defined by the body angle spanned between the head, yolk and tail using a MATLAB‐based software tool and plotted using GraphPad Prism 7.02.

[4] = molecular target: T3, β1c subunit of isolated human 20S proteasome (Homo sapiens, UniProt P28072); assay: Proteasome inhibition assay (20 S Proteasome Assay Kit, Z‐LLE‐AMC); assay type: biochemical; settings: c = 1 µM, n=1; read-out: Inhibition cCP β1
T3 construct: purchased Enzo Life Sciences
Outline: as §1

Danio rerio embryos [5] = assay: Danio rerio embryo toxicity assay (not dechorionated); assay type: in vivo
Experimental: Danio rerio embryo toxicity assay. Fish keeping protocols are approved by the Darmstadt administrative authority and documented. All fish were treated humanely. […] Embryos were decollated into separate wells containing a total volume of 200 μL and the inhibitor at the given concentration.

[6] = molecular target: T4, β2c subunit of isolated human 20S proteasome (Homo sapiens, UniProt Q99436); assay: Proteasome inhibition assay (20 S Proteasome Assay Kit, Bz‐VGR‐AMC); assay type: biochemical; settings: c = 1 µM, n=1; read-out: Inhibition cCP β2
T4 construct: purchased Enzo Life Sciences
Outline: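 Isolated 20S proteasome (200 ng/well) was preincubated 30 min with inhibitor, then Bz-VGR-AMC (100 μM final) was added for 60 min and fluorescence read. Single-point residual activity was taken at 100 nM or 1 μM; IC50 was fitted from duplicates, mean of three independent experiments.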

[7] = Danio rerio (zebrafish) embryos, in vivo
[8] = Danio rerio (zebrafish) embryos, in vivo, 24 h, 25 μM
[9] = Danio rerio (zebrafish) embryos, in vivo, 24 h, 50 µM
[10] = Danio rerio (zebrafish) embryos, in vivo, 48 h, 25 μM
[11] = Danio rerio, in vivo, 24 h, 25 µM
[12] = Danio rerio, in vivo, 24 h, 50 µM
[13] = Danio rerio, in vivo, 48 h, 25 µM

With `Cc1cc(C)c(Oc2ccccc2)cc1NC(=O)C(=O)[C@H](CC(C)C)NC(=O)[C@H](CC(C)C)NC(=O)[C@H](CC(C)C)NC(=O)c1cc(Cl)ccc1Cl` [Compound 27, 2,5‐Dichloro‐N‐((S)‐1‐(((S)‐1‐(((S)‐1‐((2,4‐dimethyl‐5‐phenoxyphenyl)amino)‐5‐methyl‐1,2‐dioxo‐hexan‐3‐yl)amino)‐4‐methyl‐1‐oxopentan‐2‐yl)amino)‐4‐methyl‐1‐oxopentan‐2‐yl)benzamide] the IC50 at 13 h (in vitro) was 300 to 600 nM, the inhibition at 1 µM ([1]; c = 1 µM, n=1, read-out: Inhibition cCP β5) was 91% and the inhibition at 0.1 µM ([1]; c=100 nM, read-out: Rel. Inhibition β5c) was 83%. For the same molecule, the IC50 ([1]; purified proteasome) was 23 nM, the “Fold‐IC50 β5i/β5c” value ([1]; selectivity β5c over β5i) was 4.2 and the inhibition at 1 µM ([2]; c = 1 µM, n=1, read-out: Inhibition iCP β5) was 68%. For the same molecule, the inhibition at 0.1 µM ([2]; c=100 nM, read-out: Rel. Inhibition β5i) was 58%, the IC50 ([2]; purified proteasome) was 96 nM and the Fold-response (Danio rerio embryos [3]; [7]) was 29. The “Relative reflexes / Stimuli, Mean” value (Danio rerio embryos [3]; [7]) was 0,81, the “Number of movements per 100 ms, Difference between means” value (Danio rerio embryos [3]; [8]) was 0,4767 ± 0,4422 and the “Reflex Duration” value (Danio rerio embryos [3]; [8]) was 295,3 ± 28,5 ms. The “Relative reflexes / Stimuli” value (Danio rerio embryos [3]; [8]) was 1,000, the “mean reflexes per stimuli” value (Danio rerio embryos [3]; [8]) was 100% and the “C-Bend Duration” value (Danio rerio embryos [3]; [9]) was 19,2 ± 2,2 ms. The “Number of movements per 100 ms, Difference between means” value (Danio rerio embryos [3]; [9]) was 0,4019 ± 0,4349, the “Number of total movements, Difference between means” value (Danio rerio embryos [3]; [9]) was 16,56 ± 4,371 and the “Relative reflexes / Stimuli” value (Danio rerio embryos [3]; [9]) was 1,000. For the same molecule, the “mean reflexes per stimuli” value (Danio rerio embryos [3]; [9]) was 100%, the “Number of movements per 100 ms, Difference between means” value (Danio rerio embryos [3]; [10]) was 0,545 ± 0,4127 and the “Reflex Duration” value (Danio rerio embryos [3]; [10]) was 403,6 ± 30,9 ms. For the same molecule, the “Relative reflexes / Stimuli” value (Danio rerio embryos [3]; [10]) was 0,545, the “mean reflexes per stimuli” value (Danio rerio embryos [3]; [10]) was 55% and the “C-Bend Amplitude, Difference between means” value (Danio rerio embryos [3]; [11]) was “- 2,833 ± 19,93”. For the same molecule, the “C-Bend Duration” value (Danio rerio embryos [3]; [11]) was 14 ± 0,8165 ms, the “C-Bend duration, Difference between means” value (Danio rerio embryos [3]; [11]) was -5,667 ± 1,826 and the “Number of total movements, Difference between means” value (Danio rerio embryos [3]; [11]) was “- 2,611 ± 3,6”. For the same molecule, the “Reflex Duration” value (Danio rerio embryos [3]; [11]) was 295,3 ± 28,53 ms, the “Reflex Duration, Difference between means” value (Danio rerio embryos [3]; [11]) was “- 95,33 ± 66,93” and the “C-Bend Amplitude, Difference between means” value (Danio rerio embryos [3]; [12]) was “- 7,333 ± 15,18”. The “C-Bend Duration” value (Danio rerio embryos [3]; [12]) was 19,17 ± 2,212 ms, the “C-Bend duration, Difference between means” value (Danio rerio embryos [3]; [12]) was “- 0,5 ± 2,458” and the “Reflex Duration” value (Danio rerio embryos [3]; [12]) was 799 ± 91,81 ms. The “Reflex Duration, Difference between means” value (Danio rerio embryos [3]; [12]) was 408,3 ± 96,75, the “C-Bend Amplitude, Difference between means” value (Danio rerio embryos [3]; [13]) was “- 9,167 ± 17,34” and the “C-Bend Duration” value (Danio rerio embryos [3]; [13]) was 15,56 ± 0,5031 ms. For the same molecule, the “C-Bend duration, Difference between means” value (Danio rerio embryos [3]; [13]) was -4,111 ± 1,464, the “Number of total movements, Difference between means” value (Danio rerio embryos [3]; [13]) was 1,889 ± 3,151 and the “Reflex Duration” value (Danio rerio embryos [3]; [13]) was 403,6 ± 30,92 ms. The “Reflex Duration, Difference between means” value (Danio rerio embryos [3]; [13]) was 12,89 ± 59,4, the “overall survival at low doses” value (Danio rerio embryos [3]; dechorionated embryos) was 58% and the “Survived (embryos of 4)” value (Danio rerio embryos [3]; 25 µM, 24 h) was 2. The “Survived (embryos of 4)” value (Danio rerio embryos [3]; 25 µM, 48 h) was 2, the “Survived (embryos of 4)” value (Danio rerio embryos [3]; 50 µM, 24 h) was 3 and the inhibition at 1 µM [4] was -48%. For the same molecule, the “Survival of embryos (not dechorionated)” value (Danio rerio embryos [5]; 1 µM, 24 h) was 100%, the “Survival of embryos (not dechorionated)” value (Danio rerio embryos [5]; 1 µM, 48 h) was 100% and the “Survival of embryos (not dechorionated)” value (Danio rerio embryos [5]; 1 µM, 72 h) was 100%. For the same molecule, the “Survival of embryos (not dechorionated)” value (Danio rerio embryos [5]; 1 µM, 96 h) was 100%, the “Survival of embryos (not dechorionated)” value (Danio rerio embryos [5]; 5 µM, 24 h) was 100% and the “Survival of embryos (not dechorionated)” value (Danio rerio embryos [5]; 5 µM, 48 h) was 100%. For the same molecule, the “Survival of embryos (not dechorionated)” value (Danio rerio embryos [5]; 5 µM, 72 h) was 100%, the “Survival of embryos (not dechorionated)” value (Danio rerio embryos [5]; 5 µM, 96 h) was 100% and the “Survival of embryos (not dechorionated)” value (Danio rerio embryos [5]; 10 µM, 24 h) was 100%. The “Survival of embryos (not dechorionated)” value (Danio rerio embryos [5]; 10 µM, 48 h) was 100%, the “Survival of embryos (not dechorionated)” value (Danio rerio embryos [5]; 10 µM, 72 h) was 100% and the “Survival of embryos (not dechorionated)” value (Danio rerio embryos [5]; 10 µM, 96 h) was 100%. The “Survival of embryos (not dechorionated)” value (Danio rerio embryos [5]; 25 µM, 24 h) was 100%, the “Survival of embryos (not dechorionated)” value (Danio rerio embryos [5]; 25 µM, 48 h) was 100% and the “Survival of embryos (not dechorionated)” value (Danio rerio embryos [5]; 25 µM, 72 h) was 100%. The “Survival of embryos (not dechorionated)” value (Danio rerio embryos [5]; 25 µM, 96 h) was 100% and the inhibition at 1 µM [6] was 6%.
